Consider 21 compounds from PubChem BioAssay (NCI).

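48-hour exposure; five concentrations; linearly interpolated endpoints. GI50 is the concentration that inhibits growth by half. TGI: total growth inhibition.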

Test systems include A549 NSCLC; K-562 leukemia; KM12 colon; MOLT-4 leukemia; SK-MEL-28 melanoma; SK-MEL-5 melanoma; SNB-19 CNS; CCRF-CEM leukemia; HOP-62 NSCLC; CAKI-1 renal.
Common to all, as to test: growth of human tumour cells (NCI), 48 h

As for `COc1ccc(/C=C/CO)cc1OC`, the TGI in the assay on A549 NSCLC, with K-562 leukemia, with KM12 colon, with MOLT-4 leukemia, with SK-MEL-28 melanoma and in the assay on SK-MEL-5 melanoma was more than 100 µM throughout. This compound also returned a TGI in the assay with SNB-19 CNS of more than 100 µM.
For the compound `NC(=O)c1ccc(NC(=O)c2oc3ccccc3c2-c2cnn(-c3ccccc3)c2)cc1`, the TGI in the assay with CCRF-CEM leukemia was more than 23.2 µM; with HOP-62 NSCLC, 46.6 µM; in the assay with K-562 leukemia it was more than 100 µM; in the assay on KM12 colon, more than 100 µM; in the assay on MOLT-4 leukemia, more than 100 µM; in the assay with SK-MEL-28 melanoma, more than 100 µM. Besides, the TGI in the assay with SNB-19 CNS is more than 100 µM. The GI50 was 3.33 µM with HOP-62 NSCLC; more than 100 µM in the assay on K-562 leukemia; more than 100 µM in the assay with KM12 colon; more than 100 µM in the assay with MOLT-4 leukemia; more than 100 µM in the assay with SK-MEL-28 melanoma; 8.98 µM in the assay with SNB-19 CNS.
As to `CN(NC(=O)/C(=C/C=C/c1ccccc1)NC(=O)c1ccccc1)C1=C(Cl)C(=O)[N+](c2ccccc2)=CC1`, the TGI was 93.8 µM with A549 NSCLC; more than 100 µM in the assay on CAKI-1 renal; 51.5 µM with HOP-62 NSCLC; 49.9 µM with K-562 leukemia; 34 µM in the assay with KM12 colon; 81.9 µM in the assay on MOLT-4 leukemia. The values for the TGI in the assay on SK-MEL-28 melanoma, with SK-MEL-5 melanoma and in the assay on SNB-19 CNS were 37.1 µM, 27.4 µM and 80.2 µM, respectively.
As to `C[P+](C)(CC(F)(F)F)c1ccccc1`, the TGI in the assay on A549 NSCLC, with CCRF-CEM leukemia, with HOP-62 NSCLC, with K-562 leukemia, with KM12 colon and in the assay on MOLT-4 leukemia was more than 100 µM in each case. Further, the TGI with SK-MEL-5 melanoma and in the assay on SNB-19 CNS was more than 100 µM in each case.
For `CCn1c(-c2cc3ccccc3cc2OC(=O)c2ccccc2)n[nH]c1=S`, the GI50 is more than 50 µM in the assay with A549 NSCLC; 24.7 µM in the assay on CAKI-1 renal; more than 50 µM in the assay with HOP-62 NSCLC; 22.5 µM in the assay with K-562 leukemia; 42.3 µM in the assay on KM12 colon; 28 µM in the assay with MOLT-4 leukemia. In addition, the values for the GI50 in the assay on SK-MEL-28 melanoma, in the assay with SK-MEL-5 melanoma and with SNB-19 CNS were more than 50 µM, 19.8 µM and more than 50 µM, respectively. Also, the TGI in the assay with A549 NSCLC, with CAKI-1 renal, in the assay with HOP-62 NSCLC, with K-562 leukemia, with KM12 colon and with MOLT-4 leukemia was more than 50 µM each time. The TGI with SK-MEL-28 melanoma, in the assay with SK-MEL-5 melanoma and in the assay on SNB-19 CNS was more than 50 µM each time.
For `O=[N+]([O-])C(=C(c1ccccc1)c1ccccc1)[N+](=O)[O-]`, the TGI with A549 NSCLC was 51.3 µM; in the assay on CAKI-1 renal, 43.2 µM; with CCRF-CEM leukemia, 22.1 µM; in the assay with K-562 leukemia, more than 100 µM; with KM12 colon, 30.2 µM; in the assay with MOLT-4 leukemia it was 22.7 µM. Moreover, the figures for the TGI in the assay on SK-MEL-28 melanoma and in the assay with SNB-19 CNS were 20.1 µM and 31.3 µM, respectively.
On to `Nc1nc(Cl)cc(NCCCCCCCCCCNc2cc(Cl)nc(N)n2)n1`, for which the TGI in the assay on A549 NSCLC, in the assay on CAKI-1 renal, in the assay with CCRF-CEM leukemia, with HOP-62 NSCLC, with K-562 leukemia and with KM12 colon was more than 100 µM each time. The TGI with SK-MEL-5 melanoma is 4.47 µM; in the assay on SNB-19 CNS it was more than 100 µM.
Consider `CN(C)c1ccc(/C=N/Nc2ccc(-c3nc4ccccc4[nH]3)cc2)cc1`, for which the GI50 in the assay with A549 NSCLC is 9.33 µM; in the assay with CAKI-1 renal, 5 µM; with HOP-62 NSCLC, 20.8 µM; with K-562 leukemia, 2.86 µM; in the assay with KM12 colon, 9.81 µM; in the assay on SK-MEL-5 melanoma, 2.03 µM. Further, in the assay with SNB-19 CNS, the GI50 was 17.3 µM. The TGI with A549 NSCLC is 27.1 µM; in the assay with CAKI-1 renal it was more than 50 µM; with HOP-62 NSCLC, more than 50 µM; in the assay with K-562 leukemia it was 16.3 µM; in the assay on KM12 colon, more than 50 µM; with SK-MEL-5 melanoma it was 9.92 µM. In the assay with SNB-19 CNS, this compound displayed a TGI of more than 50 µM.
For the compound `Cc1ccc(NC(=O)NC23CC4CC(CC(F)(C4)C2)C3)cc1`, the TGI in the assay with A549 NSCLC, with CCRF-CEM leukemia, in the assay with HOP-62 NSCLC, with K-562 leukemia, in the assay with KM12 colon and in the assay with MOLT-4 leukemia was more than 100 µM throughout. Moreover, the TGI in the assay on SK-MEL-28 melanoma, in the assay with SK-MEL-5 melanoma and with SNB-19 CNS was more than 100 µM in each case.
As for `CC1=C[C@H]2C[C@@]3(C)O[C@@H]([C@]4(C)CC[C@H]([C@@H](C)C(=O)O)OO4)CC3C(C)(C)[C@H]2CC1` (some centres not stated), the TGI in the assay on A549 NSCLC stood at 3.62 µM; with CAKI-1 renal, 2.89 µM; in the assay on HOP-62 NSCLC, 3.94 µM; in the assay with KM12 colon, 1.65 µM; with SK-MEL-28 melanoma, 2.95 µM; with SNB-19 CNS it was 3.28 µM.
Take `COc1ccc2c(c1)[n+]([O-])c(-c1ccc(Cl)c(Cl)c1)c(N)[n+]2[O-]`: the TGI in the assay with A549 NSCLC, in the assay with CAKI-1 renal, with HOP-62 NSCLC, in the assay on K-562 leukemia, in the assay on KM12 colon and with MOLT-4 leukemia was more than 100 µM throughout. Further, the values for the TGI with SK-MEL-28 melanoma, in the assay on SK-MEL-5 melanoma and in the assay on SNB-19 CNS were more than 100 µM, 31.5 µM and more than 100 µM, respectively.
For the compound `O=C(O)c1oc2ccc([N+](=O)[O-])c3c2c1CCC3`, the TGI in the assay with A549 NSCLC, in the assay with CAKI-1 renal, in the assay with HOP-62 NSCLC, in the assay with KM12 colon, in the assay with SK-MEL-28 melanoma and in the assay with SNB-19 CNS was more than 100 µM throughout.
For the compound `OCC(O)C(OC1OC(CO)C(O)C(O)C1O)c1nn(-c2ccc(F)cc2)c2nc3cc(Cl)c(Cl)cc3cc12` (configuration not stated), the TGI with CCRF-CEM leukemia, in the assay on HOP-62 NSCLC, in the assay on K-562 leukemia, in the assay on KM12 colon, with MOLT-4 leukemia and in the assay with SK-MEL-28 melanoma was more than 100 µM each time. This compound also displayed a TGI in the assay on SNB-19 CNS of more than 100 µM.
On to `COc1ccccc1OCC(O)CO` (configuration not stated), for which the GI50 in the assay with A549 NSCLC, in the assay on CAKI-1 renal, with HOP-62 NSCLC, in the assay with K-562 leukemia, in the assay on KM12 colon and with MOLT-4 leukemia was more than 100 µM each time. Also, the GI50 in the assay on SK-MEL-28 melanoma, with SK-MEL-5 melanoma and with SNB-19 CNS was more than 100 µM in each case. In addition, the TGI with A549 NSCLC, in the assay with CAKI-1 renal, with HOP-62 NSCLC, in the assay on K-562 leukemia, with KM12 colon and with MOLT-4 leukemia was more than 100 µM in each case. Besides, the TGI in the assay on SK-MEL-28 melanoma, with SK-MEL-5 melanoma and in the assay with SNB-19 CNS was more than 100 µM in each case.
Take `NC(=O)Cn1c(=O)[nH]c(=O)c2[nH]cnc21`: the TGI in the assay on A549 NSCLC, in the assay on CCRF-CEM leukemia, in the assay on HOP-62 NSCLC, in the assay with K-562 leukemia, in the assay with KM12 colon and with MOLT-4 leukemia was more than 100 µM in each case. In addition, the TGI in the assay on SK-MEL-28 melanoma, in the assay with SK-MEL-5 melanoma and with SNB-19 CNS was more than 100 µM throughout.
In the case of `CC(C)c1cc2c(O)c(c1)Cc1cc(C(C)C)cc(c1O)Cc1cc(C(C)C)cc(c1O)Cc1cc(C(C)C)cc(c1O)Cc1cc(C(C)C)cc(c1O)Cc1cc(C(C)C)cc(c1O)C2`, the TGI with A549 NSCLC, in the assay with CCRF-CEM leukemia, in the assay with HOP-62 NSCLC, in the assay on K-562 leukemia, with KM12 colon and with MOLT-4 leukemia was more than 100 µM throughout. The TGI with SK-MEL-28 melanoma, in the assay on SK-MEL-5 melanoma and in the assay with SNB-19 CNS was more than 100 µM each time.
As for `Cc1cc(C(=O)NCCN(C)C)c2nc3ccccc3nc2c1`, the TGI in the assay on A549 NSCLC is more than 58.7 µM; in the assay on CAKI-1 renal, more than 46.5 µM; with HOP-62 NSCLC it was 10.4 µM; in the assay on K-562 leukemia, 9.8 µM; with KM12 colon it was 23.8 µM; in the assay with MOLT-4 leukemia it was 5.97 µM. For the same compound, the results for the TGI in the assay on SK-MEL-28 melanoma, in the assay with SK-MEL-5 melanoma and with SNB-19 CNS were 16.1 µM, more than 41.6 µM and 73.5 µM, respectively.
With `S=C1OC2C3C4CC5C3C(O1)C1C5C4C21` (configuration not stated), the TGI in the assay with A549 NSCLC, with CAKI-1 renal, in the assay with CCRF-CEM leukemia, in the assay on HOP-62 NSCLC, with KM12 colon and in the assay with MOLT-4 leukemia was more than 100 µM each time. In addition, the TGI with SK-MEL-28 melanoma, in the assay on SK-MEL-5 melanoma and in the assay on SNB-19 CNS was more than 100 µM each time.
With `O=C1CCCc2c(O)ccc(O)c21`, the TGI with A549 NSCLC was more than 100 µM; in the assay with CCRF-CEM leukemia it was 71.7 µM; in the assay on HOP-62 NSCLC it was more than 100 µM; with K-562 leukemia, more than 100 µM; in the assay with KM12 colon, more than 100 µM; in the assay with MOLT-4 leukemia, more than 100 µM. The TGI in the assay with SK-MEL-28 melanoma, with SK-MEL-5 melanoma and with SNB-19 CNS was more than 100 µM throughout.
With `N#CCc1nc2c(s1)C(=O)c1ccccc1C2=O`, the TGI was 38.6 µM with CAKI-1 renal; 28.3 µM in the assay with HOP-62 NSCLC; 39.6 µM in the assay with K-562 leukemia; 36 µM in the assay with KM12 colon; 3.48 µM in the assay on MOLT-4 leukemia; 32.8 µM in the assay with SK-MEL-28 melanoma. Moreover, the TGI in the assay with SK-MEL-5 melanoma stood at 23.7 µM; with SNB-19 CNS it was 40.7 µM.
For the compound `COc1cc(C(N)=O)c(OC)c(OC)c1OC`, the TGI in the assay with A549 NSCLC, with CCRF-CEM leukemia, with HOP-62 NSCLC, with K-562 leukemia, in the assay with KM12 colon and with MOLT-4 leukemia was more than 100 µM in each case. Besides, the TGI in the assay with SK-MEL-28 melanoma, in the assay on SK-MEL-5 melanoma and in the assay on SNB-19 CNS was more than 100 µM each time.
